{"source": "patent US8324378B2", "about": "“Prodrugs and conjugates of prenylation inhibitors” (Purdue Research Foundation, priority 2007, dated 2012)", "key": {"FTase [1]": {"target": "T1, FTase (Homo sapiens, UniProt P49354+P49356)", "assay": "in vitro inhibition of FTase by farnesylated monophosphates", "assay_type": "biochemical"}, "FTase [2]": {"target": "T1, FTase", "conditions": "background, have been shown; cited from earlier work"}, "[3]": {"conditions": "read-out: IC50 for inhibition of FTase"}}, "note": "Read-outs that look alike come from different tables or passages of the source.", "data": [{"smiles": "CC(C)=CCCC(C)=CCCC(=CCOP(=O)(O)O)CC=C(C)C", "note": "[3-(3,3-dimethylallyl)farnesyl monophosphate]", "values": [{"measurement": "IC50", "setting": "FTase [1]; highest dose tested 10 uM, read-out: IC50 for inhibition of FTase (not showing 50% inhibition at the highest dose tested)", "result": "> 10", "unit": "µM"}]}, {"smiles": "C=CCC(=CCOP(=O)(O)O)CCC=C(C)CCC=C(C)C", "note": "[3-Allylfarnesyl monophosphate, 3-allylfarnesyl monophosphate]", "values": [{"measurement": "IC50", "setting": "FTase [1]; [3]", "result": "~0.011", "unit": "µM"}]}, {"smiles": "CC(C)=CCCC(C)=CCCC(=CCOP(=O)(O)O)C(C)(C)C", "note": "[3-t-butylfarnesyl monophosphate]", "values": [{"measurement": "IC50", "setting": "FTase [1]; [3]", "result": "~0.016", "unit": "µM"}]}, {"smiles": "CC(C)=CCCC(C)=CCCC(=CCOP(=O)(O)OP(=O)(O)O)CC=C(C)C", "note": "[pyrophosphate of 3-(3,3-dimethylallyl)farnesol]", "values": [{"measurement": "inhibition of FTase, described in words", "setting": "FTase [2]", "result": "protein-selective inhibitor"}]}, {"smiles": "C=CCC(=CCOP(=O)(O)OP(=O)(O)O)CCC=C(C)CCC=C(C)C", "note": "[pyrophosphate of 3-allylfarnesol]", "values": [{"measurement": "inhibition of FTase, described in words", "setting": "FTase [2]", "result": "nanomolar inhibitors"}]}, {"smiles": "CC(C)=CCCC(C)=CCCC(=CCOP(=O)(O)OP(=O)(O)O)C(C)(C)C", "note": "[pyrophosphate of 3-t-butylfarnesol]", "values": [{"measurement": "inhibition of FTase, described in words", "setting": "FTase [2]", "result": "nanomolar inhibitors"}]}]}
